{"source": "patent US20250207091A1", "about": "“METHODS AND COMPOSITIONS FOR PRODUCING PRIMORDIAL GERM CELL-LIKE CELLS” (President and Fellows of Harvard College, priority 2022, published 2025)", "molecules": {"B1": {"name": "HHEX: Hematopoietically Expressed Homeobox transcription factor (SEQ ID NO: 3), overexpressed in PSCs from a doxycycline-inducible polynucleotide (protein)", "chain": "MQYPHPGPAAGAVGVPLYAPTPLLQPAHPTPFYIEDILGRGPAAPTPAPTLPSPNSSFTSLVSPYRTPVYEPTPIHPAFSHHSAAALAAAYGPGGFGGPLYPFPRTVNDYTHALLRHDPLGKPLLWSPFLQRPLHKRKGGQVRFSNDQTIELEKKFETQKYLSPPERKRLAKMLQLSERQVKTWFQNRRAKWRRLKQENPQSNKKEELESLDSSCDQRQDLPSEQNKGASLDSSQCSPSPASQEDLESEISEDSDQEVDIEGDKSYFNAG"}}, "key": {"VEGFR2": {"target": "VEGFR2 (Homo sapiens, UniProt P35968)", "sequence (P35968 20-1356, species assumed)": "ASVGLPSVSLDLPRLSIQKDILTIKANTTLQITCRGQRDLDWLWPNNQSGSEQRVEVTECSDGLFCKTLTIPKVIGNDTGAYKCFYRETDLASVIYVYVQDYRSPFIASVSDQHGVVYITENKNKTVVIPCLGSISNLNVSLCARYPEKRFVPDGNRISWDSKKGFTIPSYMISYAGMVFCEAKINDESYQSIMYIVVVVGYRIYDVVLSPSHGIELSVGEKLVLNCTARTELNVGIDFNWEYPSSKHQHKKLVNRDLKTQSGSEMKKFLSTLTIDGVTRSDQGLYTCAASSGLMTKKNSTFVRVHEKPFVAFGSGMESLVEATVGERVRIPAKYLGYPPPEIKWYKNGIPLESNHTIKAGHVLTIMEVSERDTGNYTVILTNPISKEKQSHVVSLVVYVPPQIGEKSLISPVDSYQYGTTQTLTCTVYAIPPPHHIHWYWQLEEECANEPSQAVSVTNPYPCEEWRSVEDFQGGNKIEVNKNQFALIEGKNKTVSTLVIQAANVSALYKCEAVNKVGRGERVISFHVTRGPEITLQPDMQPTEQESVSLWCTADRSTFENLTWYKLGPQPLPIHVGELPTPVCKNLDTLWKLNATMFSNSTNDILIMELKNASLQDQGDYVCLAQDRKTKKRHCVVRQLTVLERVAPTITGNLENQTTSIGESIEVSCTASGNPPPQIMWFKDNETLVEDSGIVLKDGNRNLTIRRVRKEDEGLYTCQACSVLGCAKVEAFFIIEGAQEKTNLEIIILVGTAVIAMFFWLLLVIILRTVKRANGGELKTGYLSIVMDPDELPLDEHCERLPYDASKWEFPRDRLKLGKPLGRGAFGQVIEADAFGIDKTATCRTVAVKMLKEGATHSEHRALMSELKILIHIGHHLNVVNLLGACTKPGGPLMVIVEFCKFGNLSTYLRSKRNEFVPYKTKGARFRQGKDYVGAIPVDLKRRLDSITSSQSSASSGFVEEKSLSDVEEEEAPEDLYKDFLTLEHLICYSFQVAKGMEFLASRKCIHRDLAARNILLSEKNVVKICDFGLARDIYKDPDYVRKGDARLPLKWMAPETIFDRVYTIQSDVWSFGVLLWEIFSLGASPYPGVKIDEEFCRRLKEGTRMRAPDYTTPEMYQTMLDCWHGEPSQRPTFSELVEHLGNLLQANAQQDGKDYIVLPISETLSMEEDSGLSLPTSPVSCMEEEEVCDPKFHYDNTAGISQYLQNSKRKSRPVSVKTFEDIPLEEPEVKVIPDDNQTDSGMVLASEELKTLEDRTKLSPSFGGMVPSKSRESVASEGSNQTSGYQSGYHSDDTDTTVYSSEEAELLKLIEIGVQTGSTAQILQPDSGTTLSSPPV", "details": "cited from earlier work"}, "PDGFR": {"tested_on": "PDGFR", "details": "cited from earlier work"}, "c-Src": {"target": "c-Src (Homo sapiens, UniProt P12931)", "sequence (P12931 whole entry, species assumed)": "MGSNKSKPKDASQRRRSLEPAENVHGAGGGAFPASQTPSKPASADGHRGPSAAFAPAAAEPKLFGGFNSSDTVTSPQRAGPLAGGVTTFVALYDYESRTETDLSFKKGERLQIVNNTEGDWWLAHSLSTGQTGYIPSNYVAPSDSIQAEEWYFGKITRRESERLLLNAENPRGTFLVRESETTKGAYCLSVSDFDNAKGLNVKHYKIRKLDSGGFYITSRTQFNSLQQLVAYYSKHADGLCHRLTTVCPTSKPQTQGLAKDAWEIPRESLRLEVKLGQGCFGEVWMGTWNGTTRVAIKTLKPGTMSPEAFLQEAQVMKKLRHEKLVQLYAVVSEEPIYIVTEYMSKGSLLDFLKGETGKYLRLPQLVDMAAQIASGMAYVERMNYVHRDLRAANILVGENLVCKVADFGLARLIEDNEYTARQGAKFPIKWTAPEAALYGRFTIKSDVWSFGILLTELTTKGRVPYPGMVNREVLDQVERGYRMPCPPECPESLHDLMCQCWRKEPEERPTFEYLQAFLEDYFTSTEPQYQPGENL", "details": "cited from earlier work"}, "MEK": {"tested_on": "MEK", "details": "cited from earlier work"}, "PKC": {"tested_on": "PKC", "details": "cited from earlier work"}, "SW480 cells": {"tested_on": "SW480 cells", "details": "Huang et al.; cited from earlier work"}, "[1]": {"tested_on": "NANOS3-mVenus PSCs (hiPSCs)", "assay": "Primordial germ cell (hPGCLC) induction via TF overexpression in hiPSCs", "assay_type": "cell-based, human", "details": "for effect on NANOS3+ hPGCLC yield: doxycycline induction, monolayer, FIG. 1B", "source_text": "FIGS. 1A-1B show identification of overexpressed transcription factors (TFs) that drive enhancement of NANOS3+ primordial germ cell yield.\nA method was designed for high yield germ cell formation from stem cells in monolayer culture conditions, which is described in more detail below and in FIG. 4 with a culture media composition described in Table 1. The TFs DLX5, HHEX, or FIGLA or all three together, were integrated to iPSCs via piggyBac or lentivirus and a purified pool was selected through antibiotic addition. For germ cell induction, 2,500 TF-containing iPSCs per cm^2 were seeded in mTeSR™ medium on Corning® Matrigel® Matrix for six hours. After about 12-18 hours, Media #1 was removed and the cells were again washed, and Media #2 was added. The cells were then grown for about 24 hours, after which Media #2 was replaced by Media #3. The cells were again grown for about 24 hours, after which Media #3 was replaced by Media #4. Finally, the cells were again grown for about 24 hours, at which point primordial germ cells was harvested and isolated via FACS.\nExpression plasmids containing TF cDNAs under the control of a doxycycline-inducible promoter were integrated into iPSCs using PiggyBac transposase. To perform the integration, ˜50-100 fmol of TF cDNA plasmid, ˜150-250 ng PiggyBac transposase expression plasmid, and ˜100,000-200,000 iPSCs were combined in Lonza P3 buffer and electroporated using a Lonza Nucleofector 4D. After electroporation, cells were seeded in 24-well plates in mTeSR™ Plus Medium+˜8-12 μM Y-27632. Selection with the appropriate agent (typically puromycin) commenced 48 hours after electroporation and continued for ˜3-5 days. Cells were then passaged without drug selectin for ˜3 days to allow for non-integrated plasmid loss. Finally, cells were again passaged under drug selection to generate a pure, selected integrant pool. Presence and approximate copy number of integrated TF plasmids was confirmed by qPCR on genomic DNA. For oogonia, pools of hiPSCs were utilized, not single cell selected clones. Average copy number was 8-10.\nhiPSCs containing integrated TF expression plasmids were cultured in mTeSR 1 medium on Matrigel. For induction in monolayer, hiPSCs are disassociated to single cells using Accutase and seeded on Matrigel or vitronectin XF coated plates at a density of 2,500-3,000 cells per cm^2 in mTeSR™ media+˜8-10 μM Y-27632 and ˜0.5-3 μg/ml doxycycline for about 6 hours. Media was then removed and washed with dPBS and replaced with aRB27 media #1 (see components list in detailed protocol). After about 12-18 hours of induction, media #1 is removed and washed with dPBS and replaced by media #2. After about 24 hours, media #2 is removed and replaced by media #3. […]"}}, "data": [{"molecule": "CCN(CC)CCCCNc1ncc2cc(-c3cc(OC)cc(OC)c3)c(NC(=O)NC(C)(C)C)nc2n1", "note": "[PD 173074]", "values": [{"measurement": "IC50", "setting": "VEGFR2", "result": "~0.1", "unit": "µM"}, {"measurement": "IC50", "setting": "PDGFR", "result": "~17.6", "unit": "µM"}, {"measurement": "IC50", "setting": "c-Src", "result": "~19.8", "unit": "µM"}, {"measurement": "IC50", "setting": "MEK", "result": "> 50", "unit": "µM"}, {"measurement": "IC50", "setting": "PKC", "result": "> 50", "unit": "µM"}]}, {"molecule": "Oc1nc(-c2ccc(C(F)(F)F)cc2)nc2c1CSCC2", "note": "[XAV939]", "values": [{"measurement": "effect on β-catenin", "setting": "SW480 cells", "result": "promotes the degradation of β-catenin"}]}, {"molecule": "DLX5: Distal-Less Homeobox 5 transcription factor (SEQ ID NO: 2), overexpressed in PSCs from a doxycycline-inducible polynucleotide", "values": [{"measurement": "germ cell formation rescue compared to wildtype", "setting": "[1]; absence of BMP4", "result": 50, "unit": "%"}, {"measurement": "effect on NANOS3+ hPGCLC yield", "setting": "[1]", "result": "enhanced"}, {"measurement": "activity (hPGCLC yield) retained without hBMP4", "setting": "[1]; without hBMP4, compared to normal condition, FIG. 3A", "result": 40, "unit": "%"}]}, {"molecule": "FIGLA: Folliculogenesis Specific BHLH Transcription Factor (SEQ ID NO: 1), overexpressed in PSCs from a doxycycline-inducible polynucleotide", "values": [{"measurement": "effect on NANOS3+ hPGCLC yield", "setting": "[1]", "result": "enhanced"}]}, {"molecule": "B1", "values": [{"measurement": "effect on NANOS3+ hPGCLC yield", "setting": "[1]", "result": "enhanced"}]}]}
